# Target: T1, hDHFR (dihydrofolate reductase) (Homo sapiens, UniProt P00374)
# T1 construct: gene DHFR; recombinant hDHFR (8456-DR-100; R&D Systems)
# T1 sequence (P00374 1-187): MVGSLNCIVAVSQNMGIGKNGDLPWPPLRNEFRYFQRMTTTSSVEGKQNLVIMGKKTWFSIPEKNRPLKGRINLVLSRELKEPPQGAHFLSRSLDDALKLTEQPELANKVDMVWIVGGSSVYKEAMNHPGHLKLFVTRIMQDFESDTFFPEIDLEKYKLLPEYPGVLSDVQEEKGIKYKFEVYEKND
# Experiment: ITC at […]°C without NADPH (also enzyme inhibition, CETSA, TPP)
# Format: binding
# Settings: read-out: Average Kd (±s.d.)
compound,measurement,value
Cc1nc(N)nc(N)c1/C=C/C1(c2ccc(C(F)(F)F)cc2)CC1 [C1],Kd,28.1 ± 18.4 nM
